These results are taken from publication PMC12257413, “Discovery of a Novel sp^3‑Rich M1 Positive Allosteric Modulators (PAMs) Chemotype via Scaffold Hopping” (ACS Medicinal Chemistry Letters, 2025).

Series [1] in a line: Plasma protein binding by equilibrium dialysis, rat plasma. It is filed as in vitro ADME. Conditions: fraction unbound in rat plasma. Here is the method:
for 2 seconds (excitation, 480 nm; emission, 530 nm), first add occurred by adding 20 µL of test compound to the cells, and the response was measured for 140 seconds. This is followed by second add; 10 µL (5X) of an EC20 concentration of ACh agonist was added to the cells, and the response of the cells was measured for 125 seconds. Immediately, the third add occurred by adding 12 ul assay buffer or 5X of an EC max concentration of ACh and the response of the cells was measured for 90 seconds. Assay buffer was added to the wells that incubated with compounds followed by EC20 concentration of ACh. […] Calcium fluorescence was recorded as fold over basal fluorescence and raw data were normalized to the maximal response to ACh agonist. Potency (EC50) and maximum response (% ACh Max) for compounds was determined using a four -parameter logist ical equation using GraphPad Prism (La Jolla, CA) or the Dotmatics software platform ( Woburn, MA) : […]
The protein binding of each compound was determined in plasma via equilibrium dialysis employing rapid equilibrium dialysis (RED) plates (ThermoFisher Scientific, Rochester, NY). […]
same manner as the plasma samples in the previously described plasma protein binding assay. Fraction unbound for both plasma and brain samples was determined using Equation 4. […]
In general terms: In equilibrium dialysis free small molecules cross a membrane that holds back macromolecules.

The nature of series [2]: Intrinsic clearance in rat hepatic microsomes, predicted hepatic clearance. Format: in vitro ADME. The settings on record: predicted hepatic clearance from rat hepatic microsomes. As for the experimental part: A similar approach was used to determine the degree of brain homogenate binding, which employed the same methodology and procedure with the following modifications: 1) a final compound concentration of 1 μM was used, 2) naïve rat brains were homogenized in DPBS (1:3 composition of brain: DPBS, w/w) using a Mini-Bead Beater™ machine in order to obtain brain homogenate, which was then treated in the same manner as the plasma samples in the previously described plasma protein binding assay. […]
same manner as the plasma samples in the previously described plasma protein binding assay. Fraction unbound for both plasma and brain samples was determined using Equation 4.
Equation 4 Determination of fraction unbound in plasma.
The diluted fraction unbound (fu2) in brain was calculated in the same manner by using brain homogenate rather than plasma. Undiluted fraction unbound for the brain was calculated using Equation 5 […]
Equation 5 Determination of fraction unbound in brain. […]
Human or rat hepatic microsomes (0.5 mg/mL) and 1 µM test compound were incubated in 100 mM potassium phosphate pH 7.4 buffer with 3 mM MgCl 2 at 37 °C with constant shaking. […] The in vitro half-life (1/2, min, Eq. 1), intrinsic clearance (CL int, mL/min/kg, Eq. 2), and subsequent predicted hepatic clearance (CLhep, mL/min/kg, Eq. 3) was determined employing the following equations: […]

`Cn1cc(-c2ccc(Cc3cc(C(=O)N[C@H]4CCOC[C@@H]4O)nn3C3CCCC3)cc2)cn1` [17g] showed a Rat fuplasma in series [1] of 0.08. Besides, the “Rat CLHEP” value in series [2] is 32.8 mL/min/kg.

With `Cn1cc(-c2ccc(Cc3cc(C(=O)N[C@H]4CCCC[C@@H]4O)nn3C3CCCC3)cc2)cn1` [17k], the Rat fuplasma in series [1] is on record as 0.03. Besides, in series [2], the “Rat CLHEP” value is listed as 49.5 mL/min/kg.
